# Data from patent US7598279B2, “Neurotherapeutic azole compounds” (SK Holdings Co., Ltd., priority 2005, dated 2009).
# Columns and labels:
# Format in all cases: in vivo
# mice [1] = test: Maximal ElectroShock (MES)-induced tonic seizure test; conditions: Mus musculus; for responders at 30 mg/kg: read-out: Mice MES Protection % (mpk/peak time); for ED50: read-out: Mice MES ED50 (mpk/peak time)
# Protocol: The “Maximal ElectroShock (MES)” test is a well-established pharmacological screening method for anticonvulsants against tonic-clonic seizures. The procedure employed in the MES test for anticonvulsants is as follows. The compounds to be tested were dissolved in 30% PEG400 and administered ip and po into animals. After the designated number of hours, maximal electroshock (50 mA, 60 Hz, 0.2 sec) was applied into animals via corneal electrodes using IITC Life Science model 11A Shocker. […] Median efficacy dose (ED50) levels were determined using three different dose levels with at least 8 mice in each group.
# mice [2] = test: Forced swimming test (FST); conditions: 30 min after dosing
# Protocol: The “Forced swimming test (FST)” for antidepressant activity was also carried out. The procedure employed in the FST for antidepressant is as follows. The compounds to be tested were dissolved in 30% PEG400 and administered ip and po into animals. 30 min later, the immobility time during post 4 minutes of 6 minutes experiment time was measured.
# mice [3] = test: Pentylenetetrazol (PTZ)-induced clonic seizure test; conditions: Mus musculus; for responders at 30 mg/kg: read-out: Mice PTZ Protection % (mpk/peak time)
# Protocol: The “Pentylenetetrazol (PTZ)” test for anticonvulsant and antianxiety activity was also carried out.
# The procedure employed in the PTZ test is as follows. The compounds to be tested were dissolved in 30% PEG400 and administered ip and po into animals. After the designated number of hours, each animal was injected subcutaneously with 100 mg/kg of PTZ (CD97 dose) and observed for up to 30 minutes for the presence or absence of clonic spasms over 5 seconds. Median efficacy dose (ED50) levels were determined using three different dose levels with 8 mice in each group.
# [4] = 3 mice, 30 mpk, 0.5, 1, 2, 4 hr
Compound,Mice FST Reduction of immobility % (mice [2]; dose not given) [%],ED50 (mice [1]; 0.5 h) [mg/kg],also measured
"O=C(OC(Cn1ncnn1)c1ccc(Cl)cc1Cl)N1CCC(CCc2ccccc2)C1 (stereo not shown) [Example 203, 3-Phenethyl-pyrrolidine-1-carboxylic acid 1-(2,4-dichloro-phenyl)-2-tetrazol-2-yl-ethyl ester]",44.0,,responders at 30 mg/kg (mice [1]; [4]): 100%
"O=C(OC(Cn1ncnn1)c1ccccc1Cl)N1CCC(CCc2ccccc2)C1 (stereo not shown) [Example 181, 3-Phenethyl-pyrrolidine-1-carboxylic acid 1-(2-chloro-phenyl)-2-tetrazol-2-yl-ethyl ester]",30.6,12.1,responders at 30 mg/kg (mice [3]; 4 h): 33.3%
"O=C(OC(COc1ccc(Cl)c(Cl)c1)Cn1nccn1)N1CCC(CCc2ccccc2)C1 (stereo not shown) [Example 207, 3-Phenethyl-pyrrolidine-1-carboxylic acid 2-(3,4-dichloro-phenoxy)-1-[1,2,3]triazol-2-ylmethyl-ethyl ester]",43.4,,"responders at 30 mg/kg (mice [1]; 3 mice, 30 mpk, 0.5, 1, 4 hr): 100%"
"NC(=O)OC(Cn1ncnn1)c1ccc(Cl)cc1 (stereo not shown) [Example 5, Carbamic acid 1-(4-chloro-phenyl)-2-tetrazol-2-yl-ethyl ester]",71.7,18.4,
"NC(=O)OC(Cn1nccn1)c1ccc(Cl)cc1 (stereo not shown) [Example 10, Carbamic acid 1-(4-chloro-phenyl)-2-[1,2,3]triazol-2-yl-ethyl ester]",45.1,21.3,
"O=C(OC(COc1cc(Cl)ccc1Cl)Cn1ncnn1)N1CCC(CCc2ccccc2)C1 (stereo not shown) [Example 208, 3-Phenethyl-pyrrolidine-1-carboxylic acid 2-(2,5-dichloro-phenoxy)-1-tetrazol-2-ylmethyl-ethyl ester]",48.2,,"responders at 30 mg/kg (mice [1]; 3 mice, 30 mpk, 0.5, 1, 4 hr): 100%; responders at 30 mg/kg (mice [3]; 3 mice, 30 mpk, 4 hr): 33.3%"
"O=C(OC(Cn1ncnn1)c1ccccc1Cl)N1CCC(Cc2cc(C(F)(F)F)cc(C(F)(F)F)c2)CC1 (stereo not shown) [Example 197, 4-(3,5-Bis-trifluoromethyl-benzyl)-piperidine-1-carboxylic acid 1-(2-chloro-phenyl)-2-tetrazol-2-yl-ethyl ester]",,6.3,responders at 30 mg/kg (mice [3]; 4 h): 100%; Mice FST Reduction of immobility % (mice [2]): N.S
"O=C(OC(Cn1ncnn1)c1cc(Cl)ccc1Cl)N1CCC(Cc2ccc(Cl)c(Cl)c2)CC1 (stereo not shown) [Example 191, 4-(3,4-Dichloro-benzyl)-piperidine-1-carboxylic acid 1-(2,5-dichloro-phenyl)-2-tetrazol-2-yl-ethyl ester]",50.6,,"responders at 30 mg/kg (mice [1]; 4 h): 66.7%; ED50 (mice [3]; sc, read-out: Mice PTZ ED50 (mpk/peak time)): > 30 mg/kg"
"O=C(OC(Cn1ncnn1)c1cc(Cl)ccc1Cl)N1CCC(CCc2ccccc2)C1 (stereo not shown) [Example 202, 3-Phenethyl-pyrrolidine-1-carboxylic acid 1-(2,5-dichloro-phenyl)-2-tetrazol-2-yl-ethyl ester]",81.2,,"ED50 (mice [1]; mice, peak time 0.5 hr): 11.4 mg/kg; responders at 30 mg/kg (mice [3]; 3 mice, 30 mpk, 1, 4 hr): 33.3%"
"O=C(OC(Cn1ncnn1)c1ccc(Cl)cc1Cl)N1CCC(Cc2ccc(Cl)c(Cl)c2)CC1 (stereo not shown) [Example 194, 4-(3,4-Dichloro-benzyl)-piperidine-1-carboxylic acid 1-(2,4-dichloro-phenyl)-2-tetrazol-2-yl-ethyl ester]",53.4,11.9,responders at 30 mg/kg (mice [3]; 2 h): 33.3%
"NC(=O)OC(Cn1nccn1)c1ccccc1C(F)(F)F (stereo not shown) [Example 39, Carbamic acid 2-[1,2,3]triazol-2-yl-1-(2-trifluoromethyl-phenyl)-ethyl ester]",,12.5,
"NC(=O)O[C@@H](Cn1nccn1)c1ccc(Cl)c(Cl)c1 [Example 91, Carbamic acid (R)-1-(3,4-dichloro-phenyl)-2-[1,2,3]triazol-2-yl-ethyl ester]",94.0,16,
"O=C(OC(COc1ccc(Cl)cc1Cl)Cn1nccn1)N1CCC(CCc2ccccc2)C1 (stereo not shown) [Example 206, 3-Phenethyl-pyrrolidine-1-carboxylic acid 2-(2,4-dichloro-phenoxy)-1-[1,2,3]triazol-2-ylmethyl-ethyl ester]",51.4,,"responders at 30 mg/kg (mice [1]; [4]): 100%; responders at 30 mg/kg (mice [3]; 3 mice, 30 mpk, 2, 4 hr): 66.7%"
"O=C(OC(Cn1ncnn1)c1ccc(Cl)c(Cl)c1)N1CCC(Cc2ccc(Cl)c(Cl)c2)CC1 (stereo not shown) [Example 195, 4-(3,4-Dichloro-benzyl)-piperidine-1-carboxylic acid 1-(3,4-dichloro-phenyl)-2-tetrazol-2-yl-ethyl ester]",31.9,,"ED50 (mice [1]; mice, peak time 0.5 hr): 15.3 mg/kg; responders at 30 mg/kg (mice [3]; 3 mice, 30 mpk, 0.5, 1 hr): 33.3%"
"O=C(OC(Cn1nccn1)c1ccccc1Cl)N1CCC(Cc2ccc(Cl)c(Cl)c2)CC1 (stereo not shown) [Example 200, 4-(3,4-Dichloro-benzyl)-piperidine-1-carboxylic acid 1-(2-chloro-phenyl)-2-[1,2,3]triazol-2-yl-ethyl ester]",25.9,,"responders at 30 mg/kg (mice [1]; 3 mice, 30 mpk, 0.5, 4 hr): 100%"
"O=C(OC(Cn1cnnn1)c1ccccc1Cl)N1CCC(Cc2ccc(Cl)c(Cl)c2)CC1 (stereo not shown) [Example 201, 4-(3,4-Dichloro-benzyl)-piperidine-1-carboxylic acid 1-(2-chloro-phenyl)-2-tetrazol-1-yl-ethyl ester]",54.0,,"responders at 30 mg/kg (mice [1]; 3 mice, 30 mpk, 1, 2, 4 hr): 100%"
"NC(=O)OC(Cc1ccccc1)Cn1ncnn1 (stereo not shown) [Example 116, Carbamic acid 2-phenyl-1-tetrazol-2-ylmethyl-ethyl ester]",30.0,,responders at 30 mg/kg (mice [1]; 1 h): 100%; responders at 30 mg/kg (mice [3]; 2 h): 33.3%
"O=C(OC(Cn1ncnn1)c1ccccc1Cl)N1CCC(Cc2ccc(Cl)cc2)C1 (stereo not shown) [Example 196, 3-(4-Chloro-benzyl)-pyrrolidine-1-carboxylic acid 1-(2-chloro-phenyl)-2-tetrazol-2-yl-ethyl ester]",,15.3,responders at 30 mg/kg (mice [3]; 4 h): 33.3%; Mice FST Reduction of immobility % (mice [2]): N.S
"NC(=O)O[C@@H](Cn1ncnn1)c1ccc(Cl)cc1 [Example 42, Carbamic acid (R)-1-(4-chloro-phenyl)-2-tetrazol-2-yl-ethyl ester]",44.1,18.2,
"O=C(OC(Cn1ncnn1)c1ccccc1Cl)N1CCC(Cc2ccc(Cl)c(Cl)c2)CC1 (stereo not shown) [Example 175, 4-(3,4-Dichloro-benzyl)-piperidine-1-carboxylic acid 1-(2-chloro-phenyl)-2-tetrazol-2-yl-ethyl ester]",,20.2,responders at 30 mg/kg (mice [3]; 4 h): 66.7%; Mice FST Reduction of immobility % (mice [2]): N.S
"O=C(OC(Cn1ncnn1)c1ccc(Cl)c(Cl)c1)N1CCC(CCc2ccccc2)C1 (stereo not shown) [Example 204, 3-Phenethyl-pyrrolidine-1-carboxylic acid 1-(3,4-dichloro-phenyl)-2-tetrazol-2-yl-ethyl ester]",51.2,,"responders at 30 mg/kg (mice [1]; 3 mice, 30 mpk, 0.5, 1, 2 hr): 100%"
